# Data as given in US7144452B2, “Ink jet black ink, ink set, ink jet recording method, ink cartridge, recording unit, and ink jet recording apparatus” (Canon Kabushiki Kaisha, priority 2004, dated 2006).
# Test: Relative permittivity of water-soluble organic solvent (LCR meter)
# Assay type: physicochemical
# Settings: not given
# Description: The relative permittivity of the water-soluble organic solvent of various types was measured with LCR Meter 4284A (manufactured by Hewlett-Packard Japan, Ltd.) under conditions of a room temperature of 20° C. and a measurement frequency of 1 MHz.
row,Compound,Relative permittivity (measurement frequency: 1 MHz)
1,"OCCCCO [1,4-Butanediol]",31.3
2,OCCO [Ethylene glycol],38.1

# Same assay, conditions: room temperature of 20° C., 1 MHz
row,Compound,Relative permittivity (measurement frequency: 1 MHz)
1,"OCCCCC(O)CO (stereo not drawn) [1,2,6-Hexanetriol]",28.5
2,"CC(O)CO (stereo not drawn) [1,2-Propanediol]",32.2
3,O=C1CCCN1 [2-Pyrrolidone],27.5
4,OCC(O)CO [Glycerol],43.0
